Reference: patent US5612331A, “Tetrahydrocarbazole derivatives as 5-HT1-like agonists” (SmithKline Beecham PLC, priority 1992, dated 1997)
Where a name gives a salt, the structure may show the parent alone.

Biological target: T1, 5-HT1-like receptor (Oryctolagus cuniculus, UniProt P49144)
T1 construct: the basilar artery removed with the aid of a dissecting microscope; from tissue; host or cells: rabbit basilar artery ring segments, endothelium removed
Experiment: Rabbit isolated basilar artery, cumulative concentration-effect curves (isometric tension)
Assay type: cell-based
Settings: rabbit isolated basilar artery rings, endothelium removed; in presence of ascorbate, indomethacin, cocaine, ketanserin and prazosin
Procedure: Experiments were performed in intracranial arteries from rabbit isolated basilar artery in a similar method to one described previously (Parsons and Whalley, 1989. Eur J Pharmacol 174, 189-196.).
In brief, rabbits were killed by overdose with anaesthetic (sodium pentobarbitone). The whole brain was quickly removed and immersed in ice cold modified Kreb's solution and the basilar artery removed with the aid of a dissecting microscope. The Krebs solution was of the following composition (mM) Na^+ (120); K^+ (5); Ca^2+ (2.25); Mg^2+ (0.5); Cl^- (98.5); SO4^2- (1); EDTA (0.04), equilibrated with 95% O2 /5% CO2. The endothelium was removed by a gentle rubbing of the lumen with a fine metal wire. Arteries were then cut into ring segments (ca 4-5 mm wide) and set up for recording of isometric tension in 50 ml tissue baths in modified Krebs solution with the additional supplement of (mM); […] (20); fumarate (10); pyruvate (5); L-glutamate (5) and glucose (10). The arteries were then placed under a resting force of 3-4 mN maintained at 37° C. and the solution bubbled with 95% O2 /5% CO2.
After tests for initial reactivity with 90 mM KCl depolarising solution and for lack of acetylcholine-induced relaxation of 5-HT ([…]) precontraction, cumulative concentration-effect curves ([…]) to 5-HT were constructed in the presence of ascorbate […], cocaine […], indomethacin […], ketanserin […] and prazosin […].
Following a 45-60 min wash period, cumulative concentration-effect curves to the test compounds or 5-HT (as a time match control) were constructed in the presence of ascorbate, indomethacin, cocaine, ketanserin and prazosin.

T1 sequence (P49144 whole entry): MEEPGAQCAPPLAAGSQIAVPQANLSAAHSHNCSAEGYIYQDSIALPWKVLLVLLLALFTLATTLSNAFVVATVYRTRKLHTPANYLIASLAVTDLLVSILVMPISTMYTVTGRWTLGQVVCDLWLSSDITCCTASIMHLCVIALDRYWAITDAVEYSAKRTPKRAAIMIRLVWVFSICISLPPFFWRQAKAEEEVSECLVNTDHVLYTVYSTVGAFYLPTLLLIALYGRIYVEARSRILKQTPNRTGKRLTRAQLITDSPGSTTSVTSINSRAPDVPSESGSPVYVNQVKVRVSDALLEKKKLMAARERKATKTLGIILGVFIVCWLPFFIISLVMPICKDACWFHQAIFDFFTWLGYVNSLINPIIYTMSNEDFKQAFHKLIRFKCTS

Row | Structure (SMILES) | EC50
1 | CS(=O)(=O)Nc1ccc(CCNC(=O)c2ccc3[nH]c4c(c3c2)CC(N)CC4)cc1 (stereo not drawn) [Example 7, 3-Amino-6-N-[2-(4-methylsulphonamidophenyl)ethyl]carboxamido-1,2,3,4-tetrahydrocarbazole oxalate salt] | 90 to 4010 nM
2 | COc1ccc(CCNC(=O)c2ccc3[nH]c4c(c3c2)CC(N)CC4)cc1 (stereo not drawn) [Example 8, 3-Amino-6-N-[2-(4-methoxyphenyl)ethyl]carboxamido-1,2,3,4-tetrahydrocarbazole oxalate salt] | 90 to 4010 nM
3 | NC1CCc2[nH]c3ccc(C(=O)NCCc4ccc(S(N)(=O)=O)cc4)cc3c2C1 (stereo not drawn) [Example 9, 3-Amino-6-N-[2-(4-phenylsulphonamido)ethyl]carboxamido-1,2,3,4-tetrahydrocarbazole] | 90 to 4010 nM
4 | NC1CCc2[nH]c3ccc(C(=O)NCCc4ccccc4)cc3c2C1 (stereo not drawn) [Example 3, 3-Amino-6-N-(2-phenylethyl)carboxamido-1,2,3,4-tetrahydrocarbazole] | 90 to 4010 nM
5 | COc1ccc(CCCNC(=O)c2ccc3[nH]c4c(c3c2)CC(N)CC4)cc1 (stereo not drawn) [Example 17, 3-Amino-6-[3-(4-methoxyphenyl)propyl]carboxamido-1,2,3,4-tetrahydrocarbazole oxalate salt] | 90 to 4010 nM
6 | COc1ccc(/C=C/CNC(=O)c2ccc3[nH]c4c(c3c2)CC(N)CC4)cc1 (stereo not drawn) [Example 13, 3-Amino-6-[E-3-(4-methoxyphenyl)prop-2-enyl]carboxamido-1,2,3,4-tetrahydrocarbazole oxalate salt] | 90 to 4010 nM
7 | Nc1ccc(CCNC(=O)c2ccc3[nH]c4c(c3c2)CC(N)CC4)cc1 (stereo not drawn) [Example 6, 3-Amino-6-N-[2-(4-aminophenyl)ethyl]carboxamido-1,2,3,4-tetrahydrocarbazoleoxalate salt] | 90 to 4010 nM
8 | NC1CCc2[nH]c3ccc(C(=O)NCCc4ccc([N+](=O)[O-])cc4)cc3c2C1 (stereo not drawn) [Example 5, 3-Amino-6-N-[2-(4-nitrophenyl)ethyl]carboxamido-1,2,3,4-tetrahydrocarbazolefumarate salt] | 90 to 4010 nM
9 | COc1cccc(/C=C/CNC(=O)c2ccc3[nH]c4c(c3c2)CC(N)CC4)c1 (stereo not drawn) [Example 14, 3-Amino-6-[E-3-(3-methoxyphenyl)prop-2-enyl]carboxamido-1,2,3,4-tetrahydrocarbazole oxalate salt] | 90 to 4010 nM
10 | NC1CCc2[nH]c3ccc(C(=O)NC/C=C/c4cccc([N+](=O)[O-])c4)cc3c2C1 (stereo not drawn) [Example 18, 3-Amino-6-[E-3 (3-nitrophenyl)prop-2-enyl]carboxamido-1,2,3,4-tetrahydrocarbazole oxalate salt] | 90 to 4010 nM
11 | NC1CCc2[nH]c3ccc(C(=O)NC/C=C/c4ccccc4)cc3c2C1 (stereo not drawn) [Example 15, 3-Amino-6-(E-3-(phenylprop-2-enyl)carboxamido-1,2,3,4-tetrahydrocarbazole oxalate salt] | 90 to 4010 nM
12 | NC1CCc2[nH]c3ccc(C(=O)NCCCc4ccccc4)cc3c2C1 (stereo not drawn) [Example 1, 3-Amino-6-N-(3-phenylpropyl)carboxamido-1,2,3,4-tetrahydrocarbazole oxalate salt] | 90 to 4010 nM
